Source: ChEMBL document CHEMBL1201862, “PubChem BioAssay data set” (2004)
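Cells were grown in 96-well plates and exposed to each compound for 48 hours at five concentrations; endpoints were interpolated linearly between bracketing concentrations, or set to the highest concentration if not reached. GI50 is the concentration that inhibits growth by half.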 Activity calls are given as the source filed them. Cut-off read from the data, not from the text of the source: active = GI50 up to about 1.1 µM and inactive = higher. Bridge positions count the residues as written; N and C are the ends. Square brackets hold non-standard residues; d marks the D form. Peptide text beside a SMILES is read from it. I, II: the chains in the order shown. * marks the point of attachment. Quinoxaline2carbonyl = O=C(c1cnc2ccccc2n1)*; NMeV = CN[CH](C(=O)O)C(C)C; NMeC = CN[CH](CS)C(=O)O

How the values were obtained:
Experiment in all cases: NCI anticancer screen, dose series, 48 h
ACHN = tested on: ACHN
BT-549 = tested on: BT-549
CAKI-1 = tested on: CAKI-1
CCRF-CEM = tested on: CCRF-CEM
DU-145 = tested on: DU-145
EKVX = tested on: EKVX
HCC 2998 = tested on: HCC 2998
HOP-62 = tested on: HOP-62
M14 = tested on: M14
MDA-MB-231 = tested on: MDA-MB-231
NCI-H522 = tested on: NCI-H522
NCI/ADR-RES = tested on: NCI/ADR-RES
OVCAR-8 = tested on: OVCAR-8
RPMI-8226 = tested on: RPMI-8226
SF-268 = tested on: SF-268
SK-OV-3 = tested on: SK-OV-3
SN12C = tested on: SN12C
SNB-19 = tested on: SNB-19
U-251 = tested on: U-251
UACC-257 = tested on: UACC-257

Row | SMILES | GI50 (ACHN) | GI50 (BT-549) | GI50 (CAKI-1) | GI50 (CCRF-CEM) | GI50 (DU-145) | GI50 (EKVX) | GI50 (HCC 2998) | GI50 (HOP-62) | GI50 (M14) | GI50 (MDA-MB-231) | GI50 (NCI-H522) | GI50 (NCI/ADR-RES) | GI50 (OVCAR-8) | GI50 (RPMI-8226) | GI50 (SF-268) | GI50 (SK-OV-3) | GI50 (SN12C) | GI50 (SNB-19) | GI50 (U-251) | GI50 (UACC-257)
1 | CCOC(=O)C(CC(C)C)NC(=O)C(Cc1ccc(N(CCCl)CCCl)cc1)NC(C)=O (stereo not given) | 2.08 µM (inactive) | 6.67 µM (inactive) | 1.29 µM (inactive) | 0.621 µM (active) | 5.93 µM (inactive) | 11.1 µM (inactive) | 13.2 µM (inactive) | 3.01 µM (inactive) | 2.7 µM (inactive) | 5.86 µM (inactive) | 1.57 µM (inactive) | 18.1 µM (inactive) | 8.63 µM (inactive) | 2.82 µM (inactive) | 4.07 µM (inactive) | 15.8 µM (inactive) | 2.45 µM (inactive) | 14 µM (inactive) | 7.91 µM (inactive) | 3.74 µM (inactive)
2 | C[Si](C)(OCCS(=O)(=O)O)C1S(=O)(=O)OCCOS1(=O)=O | 35.9 µM (inactive) | 27.4 µM (inactive) | 27.7 µM (inactive) | 58.1 µM (inactive) | 80.9 µM (inactive) | > 100 µM (inactive) | 35.5 µM (inactive) | 56.4 µM (inactive) | 48.2 µM (inactive) | > 100 µM (inactive) | 68.1 µM (inactive) | 45.4 µM (inactive) | 86.3 µM (inactive) | > 100 µM (inactive) | 24 µM (inactive) | 79.4 µM (inactive) | > 100 µM (inactive) | 36.8 µM (inactive) | 21.8 µM (inactive) | > 100 µM (inactive)
3 | Cc1ccc2[nH]c3c(C)c4cc[n+](C)cc4c(C)c3c2c1 | 4.92 µM (inactive) | 0.753 µM (active) | 3.59 µM (inactive) | 3.06 µM (inactive) | 0.628 µM (active) | 1.27 µM (inactive) | 2.06 µM (inactive) | 0.774 µM (active) | 6.43 µM (inactive) | 0.931 µM (active) | 1.03 µM (active) | 7.93 µM (inactive) | 0.612 µM (active) | 16.1 µM (inactive) | 0.441 µM (active) | 2.51 µM (inactive) | 0.271 µM (active) | 0.499 µM (active) | 0.41 µM (active) | 3.71 µM (inactive)
4 | OCCN(CCO)c1ncnc2[nH]cnc12 | > 100 µM (inactive) | > 100 µM (inactive) | > 100 µM (inactive) | > 100 µM (inactive) | > 100 µM (inactive) | 68.5 µM (inactive) | > 100 µM (inactive) | > 100 µM (inactive) | > 100 µM (inactive) | 80.9 µM (inactive) | > 100 µM (inactive) | > 100 µM (inactive) | > 100 µM (inactive) | > 100 µM (inactive) | > 100 µM (inactive) | > 100 µM (inactive) | > 100 µM (inactive) | > 100 µM (inactive) | > 100 µM (inactive) | > 100 µM (inactive)
5 | COc1ccc(CCn2cnc3ccccc32)cc1 | > 100 µM (inactive) | > 100 µM (inactive) | > 100 µM (inactive) | > 100 µM (inactive) | > 100 µM (inactive) | > 100 µM (inactive) | > 100 µM (inactive) | > 100 µM (inactive) | > 100 µM (inactive) | > 100 µM (inactive) | > 100 µM (inactive) | > 100 µM (inactive) | > 100 µM (inactive) | > 100 µM (inactive) | > 100 µM (inactive) | > 100 µM (inactive) | > 100 µM (inactive) | > 100 µM (inactive) | > 100 µM (inactive) | > 100 µM (inactive)
6 | CC1NC(=O)C(NC(=O)c2cnc3ccccc3n2)COC(=O)C(C(C)C)N(C)C(=O)C2CSSCC(C(=O)N(C)C(C(C)C)C(=O)OCC(NC(=O)c3cnc4ccccc4n3)C(=O)NC(C)C(=O)N2C)N(C)C1=O (stereo not given) (I: Quinoxaline2carbonyl-SA[NMeC][NMeV] / II: Quinoxaline2carbonyl-SA[NMeC][NMeV]; ester I:1-II:C, I:C-II:1; disulfide I:3-II:3; configuration not given here) | < 0.01 µM (active) | < 0.01 µM (active) | < 0.01 µM (active) | < 0.01 µM (active) | < 0.01 µM (active) | < 0.01 µM (active) | < 0.01 µM (active) | < 0.01 µM (active) | < 0.01 µM (active) | < 0.01 µM (active) | < 0.01 µM (active) | < 0.01 µM (active) | < 0.01 µM (active) | < 0.01 µM (active) | < 0.01 µM (active) | < 0.01 µM (active) | < 0.01 µM (active) | < 0.01 µM (active) | < 0.01 µM (active) | < 0.01 µM (active)
7 | COC(=O)CCc1ccc2c(c1)[C@H](C(=O)OC)[C@@H](c1ccc(O)cc1)O2 | > 100 µM (inactive) | 74.5 µM (inactive) | > 100 µM (inactive) | 59.2 µM (inactive) | > 100 µM (inactive) | > 100 µM (inactive) | > 100 µM (inactive) | > 100 µM (inactive) | > 100 µM (inactive) | > 100 µM (inactive) | 75.9 µM (inactive) | > 100 µM (inactive) | > 100 µM (inactive) | 75.5 µM (inactive) | > 100 µM (inactive) | > 100 µM (inactive) | > 100 µM (inactive) | > 100 µM (inactive) | > 100 µM (inactive) | > 100 µM (inactive)
8 | COC1C(O)C(C)OC(O[C@@H]2C[C@H]3CC[C@@H]4[C@H](CC[C@]5(C)[C@@H](C6=CC(=O)OC6)CC[C@]45O)[C@@]3(C)[C@H](O)C2)C1O (stereo not given in full) | < 0.0212 µM (active) | < 0.0246 µM (active) | 0.0225 µM (active) | 0.0559 µM (active) | < 0.0302 µM (active) | < 0.0474 µM (active) | 0.719 µM (active) | 0.0333 µM (active) | 0.0741 µM (active) | 0.313 µM (active) | < 0.01 µM (active) | < 0.0443 µM (active) | 0.0472 µM (active) | 0.0512 µM (active) | < 0.0272 µM (active) | < 0.0193 µM (active) | < 0.01 µM (active) | 0.264 µM (active) | 0.0849 µM (active) | 0.1 µM (active)
9 | CC(C)(C)OC(=O)N1CCCC1C(=O)NC(c1ccccc1)c1ccccc1 (stereo not given) | > 100 µM (inactive) | > 100 µM (inactive) | > 100 µM (inactive) | > 100 µM (inactive) | > 100 µM (inactive) | > 100 µM (inactive) | > 100 µM (inactive) | > 100 µM (inactive) | > 100 µM (inactive) | > 100 µM (inactive) | > 100 µM (inactive) | > 100 µM (inactive) | > 100 µM (inactive) | > 100 µM (inactive) | > 100 µM (inactive) | > 100 µM (inactive) | > 100 µM (inactive) | > 100 µM (inactive) | > 100 µM (inactive) | > 100 µM (inactive)
10 | CC(=O)/C(=C/N1CCNC1=S)C(=O)Nc1ccccc1C | > 100 µM (inactive) | > 100 µM (inactive) | > 100 µM (inactive) | > 100 µM (inactive) | > 100 µM (inactive) | > 100 µM (inactive) | > 100 µM (inactive) | > 100 µM (inactive) | > 100 µM (inactive) | > 100 µM (inactive) | > 100 µM (inactive) | > 100 µM (inactive) | > 100 µM (inactive) | > 100 µM (inactive) | > 100 µM (inactive) | > 100 µM (inactive) | > 100 µM (inactive) | > 100 µM (inactive) | > 100 µM (inactive) | > 100 µM (inactive)
